Test results as given in patent publication US8912178B2, “mTOR selective kinase inhibitors” (Xcovery Holdings Company, LLC, priority 2010, dated 2014).

How the values were obtained:
U87-MG cells = test: Proliferation assay (Alamar blue), U87-MG; assay type: cell-based; conditions: Homo sapiens, U-87 MG, 48 h, 46-h incubation + 2-h Alamar blue, read-out: IC50 against proliferation of U87-MG cells
Experimental: (§1) Cells (U87-MG, A375, HeLa, A549, MCF7, and MCF7 ADR-res) are cultured in DMEM with 10% fetal bovine serum and streptomycin/penicillin. Solutions of the test compounds (1 μL) are spotted onto a 96-well culture plate, followed by addition of cells (1×10^4) in 100 μL. After 46-h incubation, 10 μL of Alamar blue reagent is added to each well. After 2-h, the excitation/emission wavelengths at 544/590 nm are measured using Fluostar.

A549 cells = test: Proliferation assay (Alamar blue), A549; assay type: cell-based; conditions: Homo sapiens, 48 h; A549, 46-h incubation + 2-h Alamar blue; read-out: IC50 against proliferation of A549 cells
Experimental: as §1

PI3Kα = target: T1, PI3Kα (Homo sapiens, UniProt P42336); test: Kinase competition binding assay (Ambit Biosciences), PI3Kα; conditions: tested at Ambit Biosciences; read-out: IC50 against PI3Kα
T1 construct: purchased Ambit Biosciences (contract assay)
Experimental: (§2) Assays are performed as described in Fabian et al. (2005) Nature Biotechnology, vol. 23, p. 329 and in Karaman et al. (2008) Nature Biotechnology, vol. 26, p. 127.
(§3) Kinase assays. For most assays, kinase-tagged T7 phage strains are grown in parallel in 24-well blocks in an E. coli host derived from the BL21 strain. E. coli are grown to log-phase and are infected with T7 phage from a frozen stock (multiplicity of infection˜0.1) and are incubated with shaking at 32° C. until lysis (˜90 minutes). The lysates are centrifuged (6,000×g) and filtered ([…]) to remove cell debris. The remaining kinases are produced in HEK-293 cells and subsequently tagged with DNA for qPCR detection. Streptavidin-coated magnetic beads are treated with biotinylated small molecule ligands for 30 minutes at room temperature to generate affinity resins for kinase assays. The liganded beads are blocked with excess biotin and washed with blocking buffer (SeaBlock (Pierce), 1% BSA, 0.05% Tween 20, 1 mM DTT) to remove unbound ligand and to reduce non-specific phage binding. Binding reactions are assembled by combining kinases, liganded affinity beads, and test compounds in 1× binding buffer (20% SeaBlock, 0.17×PBS, 0.05% Tween 20, 6 mM DTT). Test compounds are prepared as 40× stocks in 100% DMSO and directly diluted into the assay. All reactions are performed in polypropylene 384-well plates in a final volume of 0.04 ml. The assay plates are incubated at room temperature with shaking for 1 hour and the affinity beads are washed with wash buffer (1×PBS, 0.05% Tween 20). The beads are then re-suspended in elution buffer (1×PBS, 0.05% Tween 20, 0.5 mM non-biotinylated affinity ligand) and are incubated at room temperature with shaking for 30 minutes. The kinase concentration in the eluates is measured by qPCR.
(§4) Compounds were tested using the above assay at Ambit Biosciences (San Diego, Calif., USA).

PI3Kβ = target: T2, PI3Kβ (Homo sapiens, UniProt P42338); test: Kinase competition binding assay (Ambit Biosciences), PI3Kβ; conditions: tested at Ambit Biosciences; read-out: IC50 against PI3Kβ
T2 construct: purchased Ambit Biosciences (contract assay)
Experimental: as §2, §3, §4

mTOR = target: T3, mTOR (Homo sapiens, UniProt P42345); test: Kinase competition binding assay (Ambit Biosciences), mTOR; conditions: tested at Ambit Biosciences; read-out: IC50 against mTOR
T3 construct: purchased Ambit Biosciences (contract assay)
Experimental: as §2, §3, §4

PI3Kγ = target: T4, PI3Kγ (Homo sapiens, UniProt P48736); test: Kinase competition binding assay (Ambit Biosciences), PI3Kγ; conditions: tested at Ambit Biosciences; read-out: IC50 against PI3Kγ
T4 construct: purchased Ambit Biosciences (contract assay)
Experimental: as §2, §3, §4

PI3Kδ = target: T5, PI3Kδ (Homo sapiens, UniProt O00329); test: Kinase competition binding assay (Ambit Biosciences), PI3Kδ; conditions: tested at Ambit Biosciences; read-out: IC50 against PI3Kδ
T5 construct: purchased Ambit Biosciences (contract assay)
T5 sequence (O00329 1-1044): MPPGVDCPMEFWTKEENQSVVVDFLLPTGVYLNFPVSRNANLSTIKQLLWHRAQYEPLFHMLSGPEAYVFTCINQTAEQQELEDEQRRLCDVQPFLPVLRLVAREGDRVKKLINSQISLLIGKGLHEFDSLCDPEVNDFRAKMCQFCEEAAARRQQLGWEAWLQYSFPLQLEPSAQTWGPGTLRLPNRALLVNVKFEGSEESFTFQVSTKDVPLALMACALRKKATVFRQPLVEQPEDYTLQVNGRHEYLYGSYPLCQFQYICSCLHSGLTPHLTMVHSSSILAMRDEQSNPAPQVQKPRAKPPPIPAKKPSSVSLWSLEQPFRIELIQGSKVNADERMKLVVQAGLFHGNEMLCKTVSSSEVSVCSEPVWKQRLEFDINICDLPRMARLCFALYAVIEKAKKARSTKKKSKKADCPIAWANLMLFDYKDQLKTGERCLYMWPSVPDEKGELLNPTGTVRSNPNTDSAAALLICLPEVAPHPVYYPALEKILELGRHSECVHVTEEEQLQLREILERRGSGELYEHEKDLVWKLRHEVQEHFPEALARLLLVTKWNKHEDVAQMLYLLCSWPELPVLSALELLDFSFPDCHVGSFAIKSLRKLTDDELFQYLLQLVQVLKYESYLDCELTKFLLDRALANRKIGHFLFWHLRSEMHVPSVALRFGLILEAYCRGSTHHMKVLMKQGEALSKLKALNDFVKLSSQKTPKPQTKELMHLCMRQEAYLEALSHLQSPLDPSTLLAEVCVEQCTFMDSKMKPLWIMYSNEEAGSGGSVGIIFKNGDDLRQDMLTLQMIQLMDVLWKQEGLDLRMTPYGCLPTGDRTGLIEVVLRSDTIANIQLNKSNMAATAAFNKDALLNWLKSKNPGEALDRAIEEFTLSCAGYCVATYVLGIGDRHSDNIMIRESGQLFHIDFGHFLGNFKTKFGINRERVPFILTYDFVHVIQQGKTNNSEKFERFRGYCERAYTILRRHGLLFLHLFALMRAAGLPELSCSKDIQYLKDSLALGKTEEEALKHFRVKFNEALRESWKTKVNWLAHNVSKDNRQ
Experimental: as §2, §3, §4

T4 sequence (P48736 whole entry): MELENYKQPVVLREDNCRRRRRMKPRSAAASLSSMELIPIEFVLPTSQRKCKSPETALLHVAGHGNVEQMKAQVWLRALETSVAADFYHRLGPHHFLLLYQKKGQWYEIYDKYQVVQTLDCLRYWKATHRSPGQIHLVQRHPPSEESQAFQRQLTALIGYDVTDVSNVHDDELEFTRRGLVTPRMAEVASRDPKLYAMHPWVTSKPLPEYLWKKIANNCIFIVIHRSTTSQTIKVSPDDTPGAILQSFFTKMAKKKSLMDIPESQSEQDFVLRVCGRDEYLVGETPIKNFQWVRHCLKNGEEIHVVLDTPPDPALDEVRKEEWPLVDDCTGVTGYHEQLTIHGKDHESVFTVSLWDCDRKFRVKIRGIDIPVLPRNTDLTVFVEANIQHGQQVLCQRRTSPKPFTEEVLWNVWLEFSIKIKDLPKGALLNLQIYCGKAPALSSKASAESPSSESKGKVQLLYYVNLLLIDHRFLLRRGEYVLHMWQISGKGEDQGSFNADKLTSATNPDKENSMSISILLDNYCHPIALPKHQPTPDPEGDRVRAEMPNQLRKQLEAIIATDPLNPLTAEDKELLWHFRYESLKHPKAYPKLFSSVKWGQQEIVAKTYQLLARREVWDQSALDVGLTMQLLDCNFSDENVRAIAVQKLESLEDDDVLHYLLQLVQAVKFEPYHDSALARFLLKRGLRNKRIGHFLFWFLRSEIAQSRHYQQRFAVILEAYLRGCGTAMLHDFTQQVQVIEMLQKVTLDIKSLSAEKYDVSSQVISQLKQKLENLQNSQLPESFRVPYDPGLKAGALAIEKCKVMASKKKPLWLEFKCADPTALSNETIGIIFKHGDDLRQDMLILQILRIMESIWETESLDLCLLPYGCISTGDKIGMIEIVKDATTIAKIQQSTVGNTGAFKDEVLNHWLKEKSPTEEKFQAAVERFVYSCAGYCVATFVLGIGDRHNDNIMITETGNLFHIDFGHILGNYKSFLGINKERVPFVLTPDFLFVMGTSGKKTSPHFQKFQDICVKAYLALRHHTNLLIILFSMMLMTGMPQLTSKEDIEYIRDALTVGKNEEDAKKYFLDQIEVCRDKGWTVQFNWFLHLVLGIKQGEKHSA
T2 sequence (P42338 whole entry): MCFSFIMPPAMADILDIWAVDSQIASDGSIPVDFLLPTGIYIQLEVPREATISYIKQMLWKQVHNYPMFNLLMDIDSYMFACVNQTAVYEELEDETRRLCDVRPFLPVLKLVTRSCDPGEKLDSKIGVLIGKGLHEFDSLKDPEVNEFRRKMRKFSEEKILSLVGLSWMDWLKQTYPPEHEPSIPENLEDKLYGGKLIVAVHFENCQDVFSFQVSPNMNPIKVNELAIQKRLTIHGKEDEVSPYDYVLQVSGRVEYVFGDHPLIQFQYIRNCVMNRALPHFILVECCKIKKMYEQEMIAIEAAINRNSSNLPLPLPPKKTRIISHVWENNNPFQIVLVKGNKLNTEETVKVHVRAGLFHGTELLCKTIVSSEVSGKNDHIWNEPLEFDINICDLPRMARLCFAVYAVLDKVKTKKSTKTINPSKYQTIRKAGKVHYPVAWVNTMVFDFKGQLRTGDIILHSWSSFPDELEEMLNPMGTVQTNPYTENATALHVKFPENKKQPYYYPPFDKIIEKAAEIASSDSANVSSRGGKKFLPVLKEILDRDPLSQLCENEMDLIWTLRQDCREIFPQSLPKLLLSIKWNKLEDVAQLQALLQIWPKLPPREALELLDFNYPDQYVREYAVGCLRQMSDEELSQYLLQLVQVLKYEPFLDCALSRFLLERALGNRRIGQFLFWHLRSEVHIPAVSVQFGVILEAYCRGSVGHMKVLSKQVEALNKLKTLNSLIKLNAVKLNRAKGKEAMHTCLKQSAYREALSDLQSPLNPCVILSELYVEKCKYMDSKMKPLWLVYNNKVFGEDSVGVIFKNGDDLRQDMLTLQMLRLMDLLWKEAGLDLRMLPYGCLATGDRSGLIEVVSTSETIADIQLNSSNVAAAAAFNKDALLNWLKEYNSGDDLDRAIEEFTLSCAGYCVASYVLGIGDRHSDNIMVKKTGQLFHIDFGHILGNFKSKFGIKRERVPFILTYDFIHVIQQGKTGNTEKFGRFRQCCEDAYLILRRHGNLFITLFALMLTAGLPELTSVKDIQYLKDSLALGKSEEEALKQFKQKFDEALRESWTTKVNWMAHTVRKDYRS
T1 sequence (P42336 whole entry): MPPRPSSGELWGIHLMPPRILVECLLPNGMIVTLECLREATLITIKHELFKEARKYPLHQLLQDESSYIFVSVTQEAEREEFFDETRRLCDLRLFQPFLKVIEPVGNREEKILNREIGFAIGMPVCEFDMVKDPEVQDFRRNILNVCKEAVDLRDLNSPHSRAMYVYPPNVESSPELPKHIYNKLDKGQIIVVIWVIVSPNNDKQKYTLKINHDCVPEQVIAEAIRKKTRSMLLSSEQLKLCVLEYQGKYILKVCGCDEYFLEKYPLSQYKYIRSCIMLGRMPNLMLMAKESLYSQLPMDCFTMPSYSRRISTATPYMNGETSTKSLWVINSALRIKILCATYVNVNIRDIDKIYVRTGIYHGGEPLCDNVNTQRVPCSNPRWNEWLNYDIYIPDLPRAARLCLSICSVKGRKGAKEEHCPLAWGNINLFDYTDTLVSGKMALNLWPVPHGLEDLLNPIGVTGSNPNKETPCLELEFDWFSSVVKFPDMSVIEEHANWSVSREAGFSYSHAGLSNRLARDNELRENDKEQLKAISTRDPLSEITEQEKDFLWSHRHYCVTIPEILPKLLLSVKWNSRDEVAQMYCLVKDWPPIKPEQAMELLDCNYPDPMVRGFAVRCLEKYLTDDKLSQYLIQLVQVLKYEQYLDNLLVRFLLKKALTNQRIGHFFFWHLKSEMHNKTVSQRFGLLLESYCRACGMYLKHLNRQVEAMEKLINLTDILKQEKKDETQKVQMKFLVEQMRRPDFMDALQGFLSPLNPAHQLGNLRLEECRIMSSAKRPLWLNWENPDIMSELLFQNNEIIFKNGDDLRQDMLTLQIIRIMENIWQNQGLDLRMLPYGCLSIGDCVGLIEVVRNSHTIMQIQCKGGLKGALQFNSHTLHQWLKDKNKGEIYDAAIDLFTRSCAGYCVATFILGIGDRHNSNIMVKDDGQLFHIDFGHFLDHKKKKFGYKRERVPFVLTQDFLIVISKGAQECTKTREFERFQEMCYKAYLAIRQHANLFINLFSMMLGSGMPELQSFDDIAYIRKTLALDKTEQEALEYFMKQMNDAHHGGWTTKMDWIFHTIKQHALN

SMILES | IC50 (U87-MG cells) [nM] | IC50 (A549 cells) [nM] | IC50 (PI3Kα) [nM] | IC50 (PI3Kβ) [nM] | IC50 (mTOR) [nM] | IC50 (PI3Kγ) [nM] | IC50 (PI3Kδ) [nM]
CCNC(=O)Nc1ccc(-c2nc(N3CCOCC3)nc3c2cnn3CC(C)(C)O)cc1 [Example 1, 1-ethyl-3-[4-[1-(2-hydroxy-2-methyl-propyl)-6-morpholino-pyrazolo[3,4-d]pyrimidin-4-yl]phenyl]urea] | < 1000 | < 1000 | > 100 | > 100 | < 110 | > 100 | > 100
CNC(=O)Nc1ccc(-c2nc(N3CCOCC3)nc3c2cnn3CC(C)(C)O)cc1 [Example 2, 1-[4-[1-(2-hydroxy-2-methyl-propyl)-6-morpholino-pyrazolo[3,4-d]pyrimidin-4-yl]phenyl]-3-methyl-urea] | < 1000 | < 1000 | > 100 | > 100 | < 110 | > 100 | > 100
CNC(=O)Nc1ccc(-c2nc(N3CCOCC3)nc3c2cnn3C(C)C)cc1 [Example 3, 1-[4-(1-isopropyl-6-morpholino-pyrazolo[3,4-d]pyrimidin-4-yl)phenyl]-3-methyl-urea] |  |  | > 100 | > 100 | < 110 | > 100 | > 100
CNC(=O)Nc1ccc(-c2nc(N3CCOCC3)nc3c2cnn3C2CCN(C(=O)OC)CC2)cc1 [Example 6, methyl 4-[4-[4-(methylcarbamoylamino)phenyl]-6-morpholino-pyrazolo[3,4-d]pyrimidin-1-yl]piperidine-1-carboxylate] |  |  | > 100 | > 100 | < 110 | > 100 | > 100
CNC(=O)Nc1ccc(-c2nc(N3CCOCC3)nc3c2cnn3C2CCN(C(=O)CO)CC2)cc1 [Example 9, 1-[4-[1-[1-(2-hydroxyacetyl)-4-piperidyl]-6-morpholino-pyrazolo[3,4-d]pyrimidin-4-yl]phenyl]-3-methyl-urea] | < 1000 | < 1000 |  |  |  |  | 
CNC(=O)Nc1ccc(-c2nc(N3CCOCC3)nc3c2cnn3C2CCN(C(=O)[C@H](C)O)CC2)cc1 [Example 10, 1-[4-[1-[1-[(2S)-2-hydroxypropanoyl]-4-piperidyl]-6-morpholino-pyrazolo[3,4-d]pyrimidin-4-yl]phenyl]-3-methylurea] | < 1000 | < 1000 |  |  |  |  | 
CNC(=O)Nc1ccc(-c2nc(N3CCOCC3)nc3c2cnn3C2CCN(C(=O)COC)CC2)cc1 [Example 11, 1-[4-[1-[1-(2-methoxyacetyl)-4-piperidyl]-6-morpholino-pyrazolo[3,4-d]pyrimidin-4-yl]phenyl]-3-methyl-urea] | < 1000 | < 1000 |  |  |  |  | 
CNC(=O)Nc1ccc(-c2nc(N3CCOCC3)nc3c2cnn3C2CCOCC2)cc1 [Example 13, 1-methyl-3-[4-(6-morpholino-1-tetrahydropyran-4-yl-pyrazolo[3,4-d]pyrimidin-4-yl)phenyl]urea] | < 1000 | < 1000 | > 100 | > 100 | < 110 | > 100 | > 100
CNC(=O)Nc1ccc(-c2nc(N3CC4CCC(C3)O4)nc3c2cnn3C2CCOCC2)cc1 [Example 14, 1-methyl-3-[4-[6-(8-oxa-3-azabicyclo[3.2.1]octan-3-yl)-1-tetrahydropyran-4-yl-pyrazolo[3,4-d]pyrimidin-4-yl]phenyl]urea] | < 1000 | < 1000 |  |  |  |  | 
CNC(=O)Nc1ccc(-c2nc(N3CCOC[C@@H]3C)nc3c2cnn3C2CCOCC2)cc1 [Example 15, 1-methyl-3-[4-[6-[(3S)-3-methylmorpholin-4-yl]-1-tetrahydropyran-4-yl-pyrazolo[3,4-d]pyrimidin-4-yl]phenyl]urea] | < 1000 | < 1000 | > 100 | > 100 | < 110 | > 100 | > 100
CNC(=O)Nc1ccc(-c2nc(N3CCOC[C@@H]3C)nc3c2cnn3CC(C)(C)O)cc1 [Example 16, N-{4-[6-((3S)-3-methylmorpholin-4-yl)-1-(2-hydroxy-2-methylpropyl)pyrazolo[4,5-e]pyrimidin-4-yl]phenyl}(methylamino)carboxamide] |  |  | > 100 | > 100 | < 110 | > 100 | > 100
CNC(=O)Nc1ccc(-c2nc(N3CCOC[C@H]3C)nc3c2cnn3CC(C)(C)O)cc1 [Example 17, N-{4-[6-((3R)-3-methylmorpholin-4-yl)-1-(2-hydroxy-2-methylpropyl)pyrazolo[4,5-e]pyrimidin-4-yl]phenyl}(methylamino)carboxamide] |  |  | > 100 | > 100 | < 110 | > 100 | > 100
CNC(=O)Nc1ccc(-c2nc(N3CCOCC3)nc3c2cnn3C2CCC(CO)CC2)cc1 (stereo not shown) [Example 20, N-(4-{1-[4-(hydroxymethyl)cyclohexyl]-6-morpholin-4-ylpyrazolo[4,5-e]pyrimidin-4-yl}phenyl)(methylamino)carboxamide] | < 1000 | < 1000 |  |  |  |  | 
CNC(=O)Nc1ccc(-c2nc(N3CCOCC3)nc3c2cnn3C2CCC(O)CC2)cc1 (stereo not shown) [Example 22, N-{4-[1-(4-hydroxycyclohexyl)-6-morpholin-4-ylpyrazolo[4,5-e]pyrimidin-4-yl]phenyl}(methylamino)carboxamide] | < 1000 | < 1000 |  |  |  |  | 
CNC(=O)Nc1ccc(-c2nc(N3CCOCC3)nc3c2cnn3C2CCCC2)cc1 [Example 24, N-[4-(1-cyclopentyl-6-morpholin-4-ylpyrazolo[4,5-e]pyrimidin-4-yl)phenyl](methylamino)carboxamide] | < 1000 | < 1000 |  |  |  |  | 
CNC(=O)Nc1ccc(-c2nc(N3CCOC[C@@H]3C)nc3c2cnn3C2CCCC2)cc1 [Example 25, N-{4-[6-((3S)-3-methylmorpholin-4-yl)-1-cyclopentylpyrazolo[4,5-e]pyrimidin-4-yl]phenyl}(methylamino)carboxamide] | < 1000 | < 1000 |  |  |  |  | 
